Assay results published in PubChem BioAssay (NCI).
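Five concentrations, 48 hours, 96-well plates. At the TGI there is no net growth.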

Columns and labels:
Assay in all cases: NCI anticancer screen, dose series, 48 h
[1] = system: MOLT-4 leukemia
[2] = system: UO-31 renal
[3] = system: PC-3 prostate
[4] = system: TK-10 renal
[5] = system: UACC-62 melanoma
[6] = system: HCT-116 colon
[7] = system: UACC-257 melanoma
[8] = system: SW-620 colon
[9] = system: HCC-2998 colon
[10] = system: HL-60(TB) leukemia
[11] = system: HOP-92 NSCLC
[12] = system: BT-549 breast
[13] = system: RPMI-8226 leukemia
[14] = system: A498 renal
[15] = system: LOX IMVI melanoma
[16] = system: NCI-H23 lung
[17] = system: ACHN renal
[18] = system: MALME-3M melanoma
[19] = system: M14 melanoma
[20] = system: MCF7 breast
[21] = system: DMS 114 small cell lung
[22] = system: OVCAR-5 ovarian
[23] = system: NCI-H460 lung
[24] = system: A549 NSCLC
[25] = system: KM12 colon
[26] = system: K-562 leukemia
[27] = system: SN12C renal
[28] = system: SNB-78 CNS
[29] = system: OVCAR-4 ovarian
[30] = system: SK-MEL-28 melanoma
[31] = system: HOP-62 NSCLC
[32] = system: CCRF-CEM leukemia
[33] = system: SF-539 CNS
[34] = system: SR leukemia
[35] = system: LXFL 529 NSCLC
[36] = system: SNB-19 CNS
[37] = system: M19-MEL melanoma
[38] = system: SF-268 CNS
[39] = system: KM20L2 colon
[40] = system: MDA-MB-231 breast
[41] = system: OVCAR-3 ovarian
[42] = system: XF 498 CNS
[43] = system: OVCAR-8 ovarian
[44] = system: NCI-H522 lung
[45] = system: HS 578T breast
[46] = system: HCT-15 colon
[47] = system: RXF 393 renal
[48] = system: EKVX NSCLC
[49] = system: U251 CNS
[50] = system: CAKI-1 renal
[51] = system: SK-MEL-5 melanoma
[52] = system: SF-295 CNS
[53] = system: 786-0 renal
[54] = system: DU-145 prostate
[55] = system: SK-MEL-2 melanoma
[56] = system: T-47D breast
[57] = system: NCI-H226 lung
[58] = system: COLO 205 colon
[59] = system: IGROV1 ovarian
[60] = system: DMS 273 small cell lung
[61] = system: HOP-18 NSCLC

Compound `COc1cc2c(c(OC)c1OC)-c1cccc(=O)cc1C(NC(C)=O)CC2` (stereo unspecified) has a TGI [1] of over 100 µM, a TGI [2] of over 100 µM and a TGI [3] of over 100 µM. For the same compound, the TGI [4] was over 100 µM, the TGI [5] was over 100 µM and the TGI [6] was 25.6 µM. The TGI [7] was over 100 µM, the TGI [8] was over 100 µM and the TGI [9] was over 13.6 µM. The TGI [10] was 0.472 µM, the TGI [11] was 4.92 µM and the TGI [12] was over 100 µM. For the same compound, the TGI [13] was over 100 µM, the TGI [14] was 14.7 µM and the TGI [15] was over 100 µM. For the same compound, the TGI [16] was 11.1 µM, the TGI [17] was over 100 µM and the TGI [18] was over 100 µM. It also gave a TGI [19] of over 67.8 µM, a TGI [20] of over 100 µM and a TGI [21] of 0.391 µM. For the same compound, the TGI [22] was over 100 µM, the TGI [23] was 3.47 µM and the TGI [24] was over 100 µM. It also gave a TGI [25] of 1.75 µM, a TGI [26] of over 100 µM and a TGI [27] of over 100 µM. It also gave a TGI [28] of over 100 µM, a TGI [29] of over 100 µM and a TGI [30] of over 100 µM. For the same compound, the TGI [31] was over 39.6 µM, the TGI [32] was over 100 µM and the TGI [33] was 0.229 µM. For the same compound, the TGI [34] was over 100 µM, the TGI [35] was over 100 µM and the TGI [36] was over 100 µM. It also gave a TGI [37] of over 100 µM, a TGI [38] of over 100 µM and a TGI [39] of 1.86 µM. The TGI [40] was over 100 µM, the TGI [41] was 1.16 µM and the TGI [42] was 12.3 µM. The TGI [43] was over 16.7 µM, the TGI [44] was 0.203 µM and the TGI [45] was over 100 µM. It also gave a TGI [46] of over 100 µM, a TGI [47] of 0.952 µM and a TGI [48] of over 100 µM. For the same compound, the TGI [49] was over 100 µM, the TGI [50] was over 100 µM and the TGI [51] was 3.16 µM. It also gave a TGI [52] of 0.267 µM, a TGI [53] of over 63.1 µM and a TGI [54] of over 100 µM. For the same compound, the TGI [55] was over 24.8 µM, the TGI [56] was over 100 µM and the TGI [57] was 14.8 µM. For the same compound, the TGI [58] was 1.79 µM, the TGI [59] was over 100 µM and the TGI [60] was over 100 µM. It also gave a TGI [61] of over 100 µM.
